“Also recorded” adds a separate entry of the source. Where a SMILES comes first, the peptide text is derived from it.
Columns and labels:
[1] = hand-eye reaction time on the Dynavison D2 after a 40 minute basketball game; type: in vivo, women (basketball players); conditions: for Visual reaction time: FIG. 2
Protocol: The purpose of this study was to examine the efficacy of L-alanyl-Lglutamine (AG) ingestion on sports vision, including reaction time. Ten women (21.2±1.6 years; height: 177.8±8.7 cm; body mass:73.5±8.0 kg), all basketball players, volunteered for this study. The study required subjects to first participate in a 40 minute basketball game. During one trial, subjects consumed only water (W), while during the other two trials subjects consumed the AG supplement marketed as Sustamine mixed in water using either a low dose (1 g per 500 ml) (AG1) or high dose (2 g per 500 ml) (AG2) concentration. Other subjects where not allowed to consume water or AG. (DHY) Measurement of hand-eye reaction time was performed on the Dynavison D2 (Dynavision, Ontario Canada). Subjects were required to assume a comfortable athletic stance and stand at a distance from the board where they could easily reach all of the lights. The board height was adjusted so the LCD screen was located just below eye level. Participants were told to fixate their gaze on the LCD screen in the middle of the board and to keep their focus there for the entirety of the experiment. During the assessment each subject pressed a light with their dominant side index finger on the board. When a second light flashed (on the same line of the initial light, but on the non-dominant side of their body), the subject removed their finger and pressed the new visual stimulus. The time necessary to recognize the new stimulus (new light lit until finger lifted from initial light) was recorded as visual reaction time, and the time it took for the subject to move and press the newly lit light was recorded as the motor reaction time. The total time for both visual reaction and motor reaction was calculated as the physical reaction time. A total of eight attempts were performed. The average time for all eight attempts was recorded.

[2] = alanylglutamine compared to glutamine; cited from earlier work
[3] = alanylglutamine compared to glutamine; cited from earlier work; remark: listed apart in the source
[4] = into alanine and glutamine; cited from earlier work

Structure (SMILES) | Visual reaction time ([1]; AG1: low dose (1 g per 500 ml) in water, compared to DHY (no water and no AG), p=0.014) | change in the physical reaction time (combined visual and motor differences) ([1]; AG1: low dose (1 g per 500 ml) in water, compared to DHY, p=0.032) | Visual reaction time ([1]; AG2: high dose (2 g per 500 ml) in water, compared to DHY, p=0.018) | motor response (motor reaction time) ([1]; between trials (AG1, AG2, W, DHY), FIG. 3) | solubility in aqueous solutions [2] | heat stability [3] | degradation in the body [4]
C[C@H](N)C(=O)N[C@@H](CCC(N)=O)C(=O)O [AG, L-alanyl-Lglutamine] (H-Ala-Gln-OH) | significantly better; also recorded: enhanced visual reaction time | significantly greater | trend toward a similar response | no significant differences | superior | superior | immediately degraded
NC(=O)CC[C@H](N)C(=O)O [glutamine, reference compound] | – | – | – | – | low-solubility | – | –

Source: patent US20130225684A1, “METHODS AND COMPOSITIONS FOR ENHANCEMENT OF VISION PERFORMANCE” (KYOWA HAKKO BIO CO., LTD., priority 2012, published 2013)
